Entries after “also recorded” stand apart in the source; their conditions may differ. Positions of bridges follow the written chain, without caps; N, C: chain ends. Residues, ends and D or L forms follow the SMILES beside them.
Experiments:
chick N-cadherin = molecular target: T1, chick N-cadherin (Gallus gallus, UniProt P10288); assay: N-cadherin dependent neurite outgrowth of rat cerebellar neurons on N-cadherin expressing 3T3 cells (Example 14); assay type: cell-based; settings: for inhibition at 125 µg/mL: 125 μg/mL; for inhibition at 125 µg/mL / inhibition at 250 µg/mL: 16-18 hours; for inhibitory activity on N-cadherin dependent neurite outgrowth, in words: Tables 8 and 9, 250 or 125 μg/mL; for inhibition at 250 µg/mL: 250 μg/mL
T1 construct: expressed in transfected cells; host or cells: 3T3 fibroblasts
T1 sequence (P10288 165-912): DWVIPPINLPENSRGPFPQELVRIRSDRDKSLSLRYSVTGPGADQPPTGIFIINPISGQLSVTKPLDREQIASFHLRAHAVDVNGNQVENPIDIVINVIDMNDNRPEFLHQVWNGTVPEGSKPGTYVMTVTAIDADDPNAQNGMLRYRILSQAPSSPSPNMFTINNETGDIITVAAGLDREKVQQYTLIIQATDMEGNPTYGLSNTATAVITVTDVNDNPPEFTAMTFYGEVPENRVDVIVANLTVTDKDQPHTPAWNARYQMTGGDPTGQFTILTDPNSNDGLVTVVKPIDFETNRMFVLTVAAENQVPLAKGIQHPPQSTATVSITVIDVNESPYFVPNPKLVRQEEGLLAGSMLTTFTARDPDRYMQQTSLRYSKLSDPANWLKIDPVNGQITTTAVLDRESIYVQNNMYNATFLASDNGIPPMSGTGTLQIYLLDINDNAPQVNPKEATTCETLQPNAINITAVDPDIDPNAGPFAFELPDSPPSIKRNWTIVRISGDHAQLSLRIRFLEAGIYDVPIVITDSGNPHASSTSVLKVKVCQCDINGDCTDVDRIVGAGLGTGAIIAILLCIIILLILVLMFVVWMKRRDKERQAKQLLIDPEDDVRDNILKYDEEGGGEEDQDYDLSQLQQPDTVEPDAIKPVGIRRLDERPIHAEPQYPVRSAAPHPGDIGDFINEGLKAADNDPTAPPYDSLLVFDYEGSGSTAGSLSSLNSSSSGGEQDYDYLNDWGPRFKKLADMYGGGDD
Method: (§1) Cell culture and neurite outgrowth assays. Co-cultures of cerebellar neurons on monolayers of control 3T3 cells and monolayers of transfected 3T3 cells that express physiological levels of chick N-cadherin or human L1 were established as previously described (Williams et al., Neuron 13:583-594, 1994). In brief, 80,000 3T3 cells (control and transfected) were plated into individual chambers of an eight-chamber tissue culture slide coated with polylysine and fibronectin and cultured in DMEM/10% FCS. After 24 hours, when confluent monolayers had formed, the medium was removed and 3000 cerebellar neurons isolated from post-natal day 2-3 rats were plated into each well in SATO media (Doherty et al., Nature 343:464-466, 1990) supplemented with 2% FCS. All of the test peptides were added immediately before the neurons as a 2×stock prepared in SATO/2% FCS. The co-cultures were maintained for 16-18 hours, at which time they were fixed and immunostained for GAP-43 which is present only in the neurons and delineates the neuritic processes. The mean length of the longest neurite per cell was measured for 150-200 neurons sampled in replicate cultures as previously described (Williams et al., Neuron 13:583-594, 1994). […] Dose-response curves were evaluated and the EC50 values determined.
Effects of cyclic HAV peptides on N-cadherin function. The ability of N-Ac-CHAVC-NH2 (SEQ ID NO:10; compound 1) to inhibit neurite outgrowth was initially tested. This cyclic peptide has the cadherin CAR sequence (HAV) and no flanking amino acid residues. Neurons were cultured on confluent monolayers of control (untransfected) and N-cadherin expressing 3T3 cells for 16-18 hours. The cells were then fixed and the length of the longest neurite on 150-200 neurons was determined by standard assay, as described above. FIG. 24 gives the mean neurite length in a representative experiment where cerebellar neurons have been cultured over control and N-cadherin expressing cells. In the absence of peptide, the mean length of the longest neurite per cell was approximately double on the N-cadherin expressing cells, as compared to 3T3 cells. This response requires N-cadherin function in both the neuron and transfected fibroblast.

L1 = L1 (Homo sapiens, UniProt P32004); assay: L1 response: neurite outgrowth of rat cerebellar neurons on L1 expressing 3T3 cells (Example 14); assay type: cell-based; set-up: expressed in transfected cells; host or cells: 3T3 cells (stably transfected); settings: 100 μg/mL, concentrations that substantially inhibited the N-cadherin response
L1, sequence (P32004 20-1257): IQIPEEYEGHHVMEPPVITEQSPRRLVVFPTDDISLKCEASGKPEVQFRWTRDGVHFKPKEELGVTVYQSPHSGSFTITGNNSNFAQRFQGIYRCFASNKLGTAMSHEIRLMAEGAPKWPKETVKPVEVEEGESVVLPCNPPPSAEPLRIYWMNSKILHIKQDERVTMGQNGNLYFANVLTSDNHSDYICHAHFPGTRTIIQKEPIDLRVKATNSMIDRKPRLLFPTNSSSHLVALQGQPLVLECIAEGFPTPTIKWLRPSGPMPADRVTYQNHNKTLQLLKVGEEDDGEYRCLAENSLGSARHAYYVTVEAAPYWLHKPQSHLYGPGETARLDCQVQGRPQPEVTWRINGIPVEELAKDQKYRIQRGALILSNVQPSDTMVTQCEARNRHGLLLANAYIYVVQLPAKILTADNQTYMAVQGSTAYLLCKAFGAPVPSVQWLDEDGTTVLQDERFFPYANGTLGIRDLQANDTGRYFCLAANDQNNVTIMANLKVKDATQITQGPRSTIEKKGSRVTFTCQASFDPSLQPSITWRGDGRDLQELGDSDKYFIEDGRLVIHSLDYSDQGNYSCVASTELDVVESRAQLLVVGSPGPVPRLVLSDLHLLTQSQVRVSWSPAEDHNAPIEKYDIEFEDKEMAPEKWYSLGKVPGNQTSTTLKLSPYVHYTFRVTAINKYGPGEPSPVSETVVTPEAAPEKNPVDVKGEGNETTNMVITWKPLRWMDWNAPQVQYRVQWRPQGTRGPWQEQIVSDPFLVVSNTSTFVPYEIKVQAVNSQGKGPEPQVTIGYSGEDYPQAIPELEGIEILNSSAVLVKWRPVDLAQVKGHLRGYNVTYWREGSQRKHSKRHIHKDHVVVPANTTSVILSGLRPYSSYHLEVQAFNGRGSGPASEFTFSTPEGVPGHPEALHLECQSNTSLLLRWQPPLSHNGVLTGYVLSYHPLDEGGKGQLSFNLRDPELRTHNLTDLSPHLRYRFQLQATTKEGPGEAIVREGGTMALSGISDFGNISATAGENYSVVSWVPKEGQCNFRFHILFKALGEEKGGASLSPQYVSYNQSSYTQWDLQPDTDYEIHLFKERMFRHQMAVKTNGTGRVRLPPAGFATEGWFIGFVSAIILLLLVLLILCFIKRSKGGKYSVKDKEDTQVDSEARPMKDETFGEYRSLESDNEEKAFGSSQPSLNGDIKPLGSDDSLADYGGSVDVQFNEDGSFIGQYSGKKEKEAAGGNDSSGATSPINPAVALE
Method: FIG. 26 is a bar graph illustrating the effects of the cyclic peptides N-Ac-CHAVDC-NH2 (SEQ ID NO:11), N-Ac-CHAVDIC-NH2 (SEQ ID NO:62) and N-Ac-[…]-NH2 (SEQ ID NO:63) on L1 function. Cerebellar neurons were cultured on monolayers of control 3T3 cells and L1 expressing 3T3 cells for 16-18 hours in control media (unshaded) or control media supplemented with peptides N-Ac-CHAVDC-NH2 (SEQ ID NO:11; diagonal rising right), N-Ac-CHAVDIC-NH2 (SEQ ID NO:62); diagonal cross hatch) or N-Ac-[…]-NH2 (SEQ ID NO:63; diagonal rising left) at a concentration of 100 μg/mL. The cultures were then fixed and neurite outgrowth determined by measuring the length of the longest neurite from a total of 150-200 neurons sampled in replicate cultures for each experimental condition. […] The results are pooled from three independent experiments, and the bars show the s.e.m.
as §1, with “The co-cultures were maintained for 16-18 hours, at which time they were fixed and immunostained for GAP-43 which is present only in the neurons and delineates the neuritic processes.” left out, “determined. […]” for “determined.”

[1] = system: bovine pulmonary artery endothelial cells; assay: Disruption of bovine endothelial cell adhesion; assay type: cell-based; settings: 500 μg/ml, 30 minutes
Method: For use within one such assay, bovine pulmonary artery endothelial cells may be harvested by sterile ablation and digestion in 0.1% collagenase (type II; Worthington Enzymes, Freehold, N.J.). Cells may be maintained in Dulbecco's minimum essential medium supplemented with 10% fetal calf serum and 1% antibiotic-antimycotic at 37° C. in 7% CO2 in air. Cultures may be passaged weekly in trypsin-EDTA and seeded onto tissue culture plastic at 20,000 cells/cm^2. Endothelial cultures may be used at 1 week in culture, which is approximately 3 days after culture confluency is established. The cells may be seeded onto coverslips and treated (e.g., for 30 minutes) with modulating agent or a control compound at, for example, 500 μg/ml and then fixed with 1% paraformaldehyde. As noted above, disruption of cell adhesion may be determined visually within 24 hours, by observing retraction of the cells from one another. This assay evaluates the effect of a modulating agent on N-cadherin mediated cell adhesion.
Bovine pulmonary artery endothelial cells were harvested by sterile ablation and digestion in 0.1% collagenase (type II; Worthington Enzymes, Freehold, N.J.). Cells were maintained in Dulbecco's […] essential medium (Clonetics, San Diego, Calif.) supplemented with 10% fetal calf serum (Atlantic Biologicals, Nor cross, Ga.) and 1% antibiotic-antimycotic at 37° C. in 7% CO2 in air. Cultures were passaged weekly in trypsin-EDTA (Gibco, Grand Island, N.Y.) and seeded onto tissue culture plastic at 20,000 cells/cm^2 for all experiments. Endothelial cultures were used at 1 week in culture, which is approximately 3 days after culture confluency was established. The cells used in all protocols were between 4th passage and 10th passage. The cells were seeded onto coverslips and treated 30 minutes with N-Ac-CHAVC-NH2 (SEQ ID NO:10) or N-Ac-CHGVC-NH2 (SEQ ID NO:20) at 500 μg/ml and then fixed with 1% paraformaldehyde.

[2] = system: angiogenesis in chick embryonic chorioallantoic membranes; assay: Chick chorioallantoic membrane angiogenesis assay; assay type: in vivo; settings: for percent inhibition of angiogenesis: 24 hours
Method: The chick chorioallantoic membrane assay was used to assess the effects of cyclic peptides on angiogenesis (Iruela-Arispe et al., Molecular Biology of the Cell 6:327-343, 1995). Cyclic peptides were embedded in a mesh composed of vitrogen at concentrations of 3, 17, and 33 μg/mesh. The meshes were then applied to 12-day-old chick embryonic chorioallantoic membranes. After 24 hours, the effects of the peptides on angiogenesis were assessed by computer assisted morphometric analysis.
For each concentration of cyclic peptide, the percent inhibition of angiogenesis (relative to the level of angiogenesis in the absence of cyclic peptide) is provided. Assays were performed in the presence (+) or absence (−) of […] VEGF. For example, the cyclic peptide N-Ac-CHAVC-NH2 (SEQ ID NO:10) inhibited angiogenesis by 46%, 51%, and 51% at concentrations of 3, 17, and 33 μg/mesh, respectively.

in vitro [3] = assay type: cell-based; settings: human
Method: (§2) N-Ac-CHAVC-NH2 (SEQ ID NO:10) and the control peptide N-Ac-CHGVC-NH2 (SEQ ID NO:20) were evaluated for possible cytotoxic effects on human microvascular endothelial (HMVEC; Clonetics), human umbilical vein endothelial (HUVEC; ATCC #CRL-1730), IAFp2 (human fibroblast cell line; Institute Armand-Frapier, Montreal, Quebec), WI-38 (human fibroblast cell line; ATCC #CCL-75), MDA-MB231 (human breast cancer cell line; ATCC #HTB-26), and PC-3 (human prostate cancer cell line; ATCC #CRL-1435) cells utilizing the MTT assay (Plumb et al., Cancer Res. 49:4435-4440, 1989). Neither of the peptides was cytotoxic at concentrations up to and including 100 μM. Similarly, neither of the peptides was capable of inhibiting the proliferation of the above cell lines at concentrations up to 100 μM, as judged by ^3H-thymidine incorporation assays.

in vitro [4] = assay type: cell-based; settings: human; remark: listed apart in the source
Method: as §2

in vitro [5] = assay type: cell-based; settings: human; remark: listed apart in the source
Method: as §2

in vitro [6] = assay type: cell-based; settings: human; remark: listed apart in the source
Method: as §2

| SMILES | inhibition at 125 µg/mL (chick N-cadherin; NIH3T3) [%] | inhibitory activity on N-cadherin dependent neurite outgrowth, in words (chick N-cadherin) | EC50 (chick N-cadherin; from dose-response curve) [µM] | effect on L1 response (neurite outgrowth over L1 expressing 3T3 cells) (L1) | effect on endothelial cell monolayer / morphology [1] | percent inhibition of angiogenesis ([2]; 3 μg/mesh, absence (−) of 0.01 mM VEGF) [%] | percent inhibition of angiogenesis ([2]; 3 μg/mesh, presence (+) of 0.01 mM VEGF) [%] | percent inhibition of angiogenesis ([2]; 17 μg/mesh, absence (−) of 0.01 mM VEGF) [%] | percent inhibition of angiogenesis ([2]; 17 μg/mesh, presence (+) of 0.01 mM VEGF) [%] | percent inhibition of angiogenesis ([2]; 33 μg/mesh, absence (−) of 0.01 mM VEGF) [%] | percent inhibition of angiogenesis ([2]; 33 μg/mesh, presence (+) of 0.01 mM VEGF) [%] | inhibition of angiogenesis, in words ([2]; 3, 17, and 33 μg/mesh) | IC50 (in vitro [3]) [µM] | IC50 (in vitro [4]) [µM] | IC50 (in vitro [5]) [µM] | IC50 (in vitro [6]) [µM] | inhibition at 250 µg/mL (chick N-cadherin; NIH3T3) [%] | reduction in inhibitory activity on flanking HAV with E-cadherin amino acids (chick N-cadherin; Table 8, 250 μg/mL) | inhibition at 33 µg/mL (chick N-cadherin; NIH3T3, 33 μg/mL) [%] |
| --- | --- | --- | --- | --- | --- | --- | --- | --- | --- | --- | --- | --- | --- | --- | --- | --- | --- | --- | --- |
| CC[C@H](C)[C@@H]1NC(=O)[C@H](CC(=O)O)NC(=O)[C@H](C(C)C)NC(=O)[C@H](C)NC(=O)[C@H](Cc2c[nH]cn2)NC(=O)[C@@H](NC(C)=O)CSSC[C@@H](C(N)=O)NC(=O)[C@H](CC(N)=O)NC1=O (Ac-CHAVDINC-NH2; disulfide 1-8) | 62 ± 3.4 | only a slight loss in activity; also recorded: potent inhibitors | 70 | did not interfere with the ability of neurons to extend neurites over 3T3 cells expressing L1; also recorded: not inhibited |  |  |  |  |  |  |  |  |  |  |  |  |  |  |  |
| CC(=O)N[C@H]1CSSC[C@@H](C(N)=O)NC(=O)[C@H](CO)NC(=O)[C@H](CO)NC(=O)[C@H](C(C)C)NC(=O)[C@H](C)NC(=O)[C@H](Cc2c[nH]cn2)NC(=O)[C@H](CO)NC1=O (Ac-CSHAVSSC-NH2; disulfide 1-8) |  |  |  |  | disrupted the endothelial cell monolayer; also recorded: retracted from one another and round up | 1 | −3 | −3 | 12 | 17 | 7 | relatively inactive | > 100 | > 100 | > 100 | > 100 | -12.6 ± 6.4 | complete |  |
| CC(=O)N[C@H]1CSSC[C@@H](C(N)=O)NC(=O)[C@H](CC(=O)O)NC(=O)[C@H](C(C)C)NC(=O)CNC(=O)[C@H](Cc2c[nH]cn2)NC(=O)[C@H](C)NC1=O [N-Ac-CAHGVDC-NH2, reference compound] (Ac-CAHGVDC-NH2; disulfide 1-7) |  |  |  |  | inactive |  |  |  |  |  |  |  | > 100 | > 100 | > 100 | > 100 | 4 ± 6.9 |  |  |
| CC(=O)N[C@H]1CSSC[C@@H](C(N)=O)NC(=O)[C@H](CC(=O)O)NC(=O)[C@H](C(C)C)NC(=O)[C@H](C)NC(=O)[C@H](Cc2c[nH]cn2)NC1=O [N-Ac-CHAVDC-NH2] (Ac-CHAVDC-NH2; disulfide 1-6) | 77.1 ± 8.4 | dramatically increased the inhibitory activity; also recorded: potent inhibitors of neurite outgrowth |  | did not interfere with the ability of neurons to extend neurites over 3T3 cells expressing L1; also recorded: not inhibited |  |  |  |  |  |  |  |  |  |  |  |  |  |  | 28.5 |
| CC(=O)N[C@H]1CSSC[C@@H](C(N)=O)NC(=O)[C@H](CO)NC(=O)[C@H](CO)NC(=O)[C@H](C(C)C)NC(=O)CNC(=O)[C@H](Cc2c[nH]cn2)NC(=O)[C@H](CO)NC1=O [reference compound] (Ac-CSHGVSSC-NH2; disulfide 1-8) |  |  |  |  | inactive |  |  |  |  |  |  |  | > 100 | > 100 | > 100 | > 100 | -5.6 ± 5.9 |  |  |
